Tests used:
[1] = molecular target: human Nav1.5 (Homo sapiens (Human), UniProt Q14524); assay: Human Nav1.5 inhibitory activity evaluation (automated patch clamp QPatch16X, HEK293 cells stably expressing human Nav1.5); assay type: cell-based; details: HEK293 cells stably expressing human Nav1.5, automated patch clamp QPatch16X
Method in brief: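 Whole-cell automated patch clamp at room temperature on HEK293 stably expressing human Nav1.5; holding −80 mV, 20 consecutive cardiomyocyte action-potential-like test pulses before and after compound (0.1% DMSO). Inhibition measured on inward current at 20th pulse; IC50 from concentration-response curve.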

[2] = molecular target: human Nav1.7 (Homo sapiens (Human), UniProt Q15858); assay: Human Nav1.7 inhibitory activity evaluation (automated patch clamp QPatch16X, HEK293A cells stably expressing human Nav1.7 and human Navβ1); assay type: cell-based; details: HEK293A cells stably expressing human Nav1.7 and human Navβ1, automated patch clamp QPatch16X
Method in brief: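 QPatch16X whole-cell recordings at room temperature from HEK293A cells stably expressing human Nav1.7 with Navβ1, CsF-based internal solution, pH 7.4 external, 0.1% DMSO. From −100 mV holding, protocol included a 15 s hold at a potential inactivating ~30-40% of channels; IC50 from inward current at the second −10 mV pulse.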

Sequence of human Nav1.5 (Q14524 whole entry): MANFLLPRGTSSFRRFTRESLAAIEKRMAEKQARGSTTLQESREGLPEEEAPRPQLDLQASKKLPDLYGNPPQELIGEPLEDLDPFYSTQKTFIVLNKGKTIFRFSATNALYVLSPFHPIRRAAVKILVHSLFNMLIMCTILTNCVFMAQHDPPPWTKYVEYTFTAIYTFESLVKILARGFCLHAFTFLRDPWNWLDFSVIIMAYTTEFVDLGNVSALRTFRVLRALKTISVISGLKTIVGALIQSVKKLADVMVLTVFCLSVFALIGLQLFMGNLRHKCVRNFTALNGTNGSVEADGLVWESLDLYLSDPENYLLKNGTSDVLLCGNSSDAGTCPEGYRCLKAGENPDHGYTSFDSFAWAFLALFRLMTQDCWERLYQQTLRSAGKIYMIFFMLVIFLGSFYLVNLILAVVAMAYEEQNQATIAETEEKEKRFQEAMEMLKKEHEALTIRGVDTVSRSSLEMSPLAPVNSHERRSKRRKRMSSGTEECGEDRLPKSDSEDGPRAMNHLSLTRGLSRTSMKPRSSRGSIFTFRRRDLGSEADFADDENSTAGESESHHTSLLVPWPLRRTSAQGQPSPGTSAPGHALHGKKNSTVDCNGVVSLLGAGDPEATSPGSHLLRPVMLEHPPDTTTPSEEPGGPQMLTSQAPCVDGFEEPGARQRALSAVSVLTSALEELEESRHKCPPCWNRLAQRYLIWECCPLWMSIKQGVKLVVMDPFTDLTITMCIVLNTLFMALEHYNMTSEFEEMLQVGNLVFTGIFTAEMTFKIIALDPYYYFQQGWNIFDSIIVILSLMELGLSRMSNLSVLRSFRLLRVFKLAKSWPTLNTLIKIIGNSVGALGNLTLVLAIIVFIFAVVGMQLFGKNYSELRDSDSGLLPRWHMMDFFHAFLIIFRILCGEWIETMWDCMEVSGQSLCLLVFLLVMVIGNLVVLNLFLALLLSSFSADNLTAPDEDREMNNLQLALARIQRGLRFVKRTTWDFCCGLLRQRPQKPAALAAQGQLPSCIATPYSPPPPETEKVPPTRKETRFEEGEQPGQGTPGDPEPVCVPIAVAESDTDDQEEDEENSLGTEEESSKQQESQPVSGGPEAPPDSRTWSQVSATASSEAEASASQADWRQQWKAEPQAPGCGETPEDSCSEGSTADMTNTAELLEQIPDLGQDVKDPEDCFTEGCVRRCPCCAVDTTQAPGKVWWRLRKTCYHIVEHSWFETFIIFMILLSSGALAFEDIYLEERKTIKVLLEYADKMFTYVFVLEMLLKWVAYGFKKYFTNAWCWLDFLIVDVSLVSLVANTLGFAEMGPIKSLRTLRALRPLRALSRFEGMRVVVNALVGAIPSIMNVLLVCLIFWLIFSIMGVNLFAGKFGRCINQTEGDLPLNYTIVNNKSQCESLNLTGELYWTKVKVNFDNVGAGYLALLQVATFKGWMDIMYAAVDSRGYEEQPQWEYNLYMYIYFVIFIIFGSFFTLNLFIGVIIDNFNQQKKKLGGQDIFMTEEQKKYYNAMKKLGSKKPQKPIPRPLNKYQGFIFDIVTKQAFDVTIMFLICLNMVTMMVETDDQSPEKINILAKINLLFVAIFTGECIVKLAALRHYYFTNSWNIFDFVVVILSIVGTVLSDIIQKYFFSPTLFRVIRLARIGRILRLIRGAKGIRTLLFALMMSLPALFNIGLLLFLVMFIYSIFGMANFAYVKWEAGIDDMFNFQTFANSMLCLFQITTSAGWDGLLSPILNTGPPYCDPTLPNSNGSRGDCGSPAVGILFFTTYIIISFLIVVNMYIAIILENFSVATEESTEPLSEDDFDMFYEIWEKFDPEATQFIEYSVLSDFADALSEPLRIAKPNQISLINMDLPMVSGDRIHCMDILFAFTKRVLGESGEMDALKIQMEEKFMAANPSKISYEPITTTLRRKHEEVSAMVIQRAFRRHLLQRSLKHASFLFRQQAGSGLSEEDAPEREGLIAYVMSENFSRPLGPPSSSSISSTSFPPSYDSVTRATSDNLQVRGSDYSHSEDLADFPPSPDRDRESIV
Sequence of human Nav1.7 (Q15858 whole entry): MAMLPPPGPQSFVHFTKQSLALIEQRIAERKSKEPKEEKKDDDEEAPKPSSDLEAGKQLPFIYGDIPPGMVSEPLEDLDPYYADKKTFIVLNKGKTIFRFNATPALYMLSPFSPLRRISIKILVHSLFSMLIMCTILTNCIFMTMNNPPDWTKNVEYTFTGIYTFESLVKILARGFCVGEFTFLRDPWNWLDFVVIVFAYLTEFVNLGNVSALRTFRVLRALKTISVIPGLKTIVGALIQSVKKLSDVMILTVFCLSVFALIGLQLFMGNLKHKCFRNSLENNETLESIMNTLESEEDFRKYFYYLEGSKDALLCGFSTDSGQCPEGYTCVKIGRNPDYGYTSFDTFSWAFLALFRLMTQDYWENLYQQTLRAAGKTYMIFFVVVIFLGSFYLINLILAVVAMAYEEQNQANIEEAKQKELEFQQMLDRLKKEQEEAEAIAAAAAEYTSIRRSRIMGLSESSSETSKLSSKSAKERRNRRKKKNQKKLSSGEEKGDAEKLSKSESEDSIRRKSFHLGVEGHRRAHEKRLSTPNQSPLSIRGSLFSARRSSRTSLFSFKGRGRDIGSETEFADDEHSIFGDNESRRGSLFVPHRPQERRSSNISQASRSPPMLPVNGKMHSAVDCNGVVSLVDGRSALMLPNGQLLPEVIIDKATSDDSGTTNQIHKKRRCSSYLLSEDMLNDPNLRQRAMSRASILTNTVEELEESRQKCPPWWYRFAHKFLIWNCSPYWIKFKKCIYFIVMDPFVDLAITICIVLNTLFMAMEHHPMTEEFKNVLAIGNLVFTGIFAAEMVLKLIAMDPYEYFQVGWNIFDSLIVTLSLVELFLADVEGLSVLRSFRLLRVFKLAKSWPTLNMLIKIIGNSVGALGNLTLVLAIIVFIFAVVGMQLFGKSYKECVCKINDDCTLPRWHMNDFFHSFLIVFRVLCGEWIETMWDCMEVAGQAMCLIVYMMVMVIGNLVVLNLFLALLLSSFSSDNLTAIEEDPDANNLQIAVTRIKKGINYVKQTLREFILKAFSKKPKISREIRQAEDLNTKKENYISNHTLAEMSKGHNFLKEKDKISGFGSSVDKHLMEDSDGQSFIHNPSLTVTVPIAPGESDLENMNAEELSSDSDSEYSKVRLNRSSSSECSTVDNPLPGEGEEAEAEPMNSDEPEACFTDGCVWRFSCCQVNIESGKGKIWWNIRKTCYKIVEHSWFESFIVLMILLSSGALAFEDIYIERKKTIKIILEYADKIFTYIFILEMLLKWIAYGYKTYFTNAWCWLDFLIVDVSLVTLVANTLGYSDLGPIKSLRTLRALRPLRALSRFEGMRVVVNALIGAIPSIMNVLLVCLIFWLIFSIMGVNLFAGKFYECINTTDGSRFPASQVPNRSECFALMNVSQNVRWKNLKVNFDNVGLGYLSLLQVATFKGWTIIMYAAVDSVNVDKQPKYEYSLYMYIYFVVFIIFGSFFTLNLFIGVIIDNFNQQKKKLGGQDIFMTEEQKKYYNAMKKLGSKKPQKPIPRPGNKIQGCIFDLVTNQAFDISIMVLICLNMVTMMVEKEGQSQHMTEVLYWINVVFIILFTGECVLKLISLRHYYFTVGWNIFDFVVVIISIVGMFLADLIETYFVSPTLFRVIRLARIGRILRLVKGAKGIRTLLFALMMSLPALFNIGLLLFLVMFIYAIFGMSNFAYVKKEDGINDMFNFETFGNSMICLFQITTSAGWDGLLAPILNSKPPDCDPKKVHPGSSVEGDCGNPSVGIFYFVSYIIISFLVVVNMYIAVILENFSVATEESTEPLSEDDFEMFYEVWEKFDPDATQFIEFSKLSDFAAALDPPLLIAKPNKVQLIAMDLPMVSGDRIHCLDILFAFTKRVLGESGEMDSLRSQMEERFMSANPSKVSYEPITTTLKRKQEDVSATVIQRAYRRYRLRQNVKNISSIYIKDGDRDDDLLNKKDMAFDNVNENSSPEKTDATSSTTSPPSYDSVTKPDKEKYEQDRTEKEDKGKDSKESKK
Sequence of human Nav1.7 (Q07699 19-218 partner): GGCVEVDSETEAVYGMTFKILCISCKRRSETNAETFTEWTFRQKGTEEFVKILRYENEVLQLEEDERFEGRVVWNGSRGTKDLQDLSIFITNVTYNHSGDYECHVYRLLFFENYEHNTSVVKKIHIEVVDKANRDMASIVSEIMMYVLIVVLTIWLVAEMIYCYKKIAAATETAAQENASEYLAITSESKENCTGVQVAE

Compound | IC50 [2] [nM] | IC50 [1] [nM]
O=C(NC1COc2ccc(F)cc2C1)c1cn2c(n1)CCC(C(F)(F)F)C2 (stereo not drawn) [Example 1, N-(6-fluorochroman-3-yl)-6-(trifluoromethyl)-5,6,7,8-tetrahydroimidazo[1,2-a]pyridine-2-carboxamide] | < 10000 | ≥ 3000
O=C(N[C@H]1COc2ccc(C(F)F)cc2C1)c1cn2c(n1)CCC(C(F)(F)F)C2 (stereo partly drawn) [Example 6] | < 10000 | 1000 to 3000
O=C(N[C@H]1COc2ccccc2C1)c1nc2n(c1I)CC(C(F)(F)F)CC2 (stereo partly drawn) [Example 14, N—((R)-chroman-3-yl)-3-iodo-6-(trifluoromethyl)-5,6,7,8-tetrahydroimidazo[1,2-a]pyridine-2-carboxamide] | < 10000 | ≥ 3000
O=C(NCCc1cccc(C(F)(F)F)c1)c1nc2n(c1-c1ccccc1)CCCC2 [Example 22] | < 10000 | ≥ 3000
CCC1CCc2nc(C(=O)N[C@H]3COc4ccccc4C3)cn2C1 (stereo partly drawn) [Example 23] | < 10000 | ≥ 3000
O=C(N[C@H]1COc2ccccc2C1)c1nc2n(c1Cl)CC(c1ccccc1)CC2 (stereo partly drawn) [Example 25] | < 10000 | 1000 to 3000
COc1ncccc1C1CCc2nc(C(=O)N3CCC(c4ccccc4)C3)cn2C1 (stereo not drawn) [Example 26] | < 10000 | ≥ 3000
COc1cccc(C2CCc3nc(C(=O)N[C@H]4COc5ccccc5C4)cn3C2)n1 (stereo partly drawn) [Example 27] | < 1000 | < 1000
COc1cccc(OC2CCN(C(=O)c3cn4c(n3)CCC(C3CCCC3)C4)C2)n1 (stereo not drawn) [Example 28] | < 10000 | ≥ 3000
O=C(c1cn2c(n1)CCC(CCc1ccccc1)C2)N1CCC(Oc2ccccn2)C1 (stereo not drawn) [Example 29] | < 10000 | 1000 to 3000
O=C(c1cn2c(n1)CCC(c1cccnc1C(F)(F)F)C2)N1CCC1Cc1ccccc1 (stereo not drawn) [Example 30] | < 10000 | ≥ 3000
COc1ncc(C(F)(F)F)cc1C1CCc2nc(C(=O)N3CCOC(c4ccc(F)cc4F)C3)cn2C1 (stereo not drawn) [Example 32] | < 10000 | 1000 to 3000
O=C(N[C@H]1COc2ccccc2C1)c1cn2c(n1)CCC(COc1ccccc1)C2 (stereo partly drawn) [Example 33] | < 1000 | 1000 to 3000
CC(C)(C)OCC1CCc2nc(C(=O)N[C@H]3COc4ccccc4C3)cn2C1 (stereo partly drawn) [Example 34] | < 10000 | ≥ 3000
O=C(N[C@H]1COc2ccccc2C1)c1cn2c(n1)CCC(C1(F)CCC1)C2 (stereo partly drawn) [Example 35] | < 1000 | 1000 to 3000

Continued, in another order:

IC50 [2] [nM] | Compound | IC50 [1] [nM]
< 1000 | CN(C(=O)c1cn2c(n1)CCC(C(F)(F)F)C2)[C@H]1COc2ccc(Cl)cc2C1 (stereo partly drawn) [Example 3] | 1000 to 3000
< 1000 | O=C(N[C@H]1COc2ccc(Br)cc2C1)c1cn2c(n1)CCC(C(F)(F)F)C2 (stereo partly drawn) [Example 5] | 1000 to 3000
< 1000 | O=C(NC1COc2cccc(Cl)c2C1)c1cn2c(n1)CCC(C(F)(F)F)C2 (stereo not drawn) [Example 8] | ≥ 3000
< 1000 | CCc1ccc2c(c1)C[C@@H](NC(=O)c1cn3c(n1)CCC(C(F)(F)F)C3)CO2 (stereo partly drawn) [Example 11] | ≥ 3000
< 1000 | O=C(NC1COc2ccc(Br)cc2C1)c1cn2c(n1)CCC(C(F)(F)F)C2 (stereo not drawn) [Example 12] | 1000 to 3000
< 1000 | O=C(N[C@H]1COc2ccccc2C1)c1nc2n(c1-c1ccccc1)CCCC2 [Example 16] | < 1000
< 1000 | COc1cccc(-c2c(C(=O)N[C@H]3COc4ccc(Cl)cc4C3)nc3n2CCCC3)n1 [Example 17, (R)—N-(6-chlorochroman-3-yl)-3-(6-methoxypyridin-2-yl)-5,6,7,8-tetrahydroimidazo[1,2-a]pyridine-2-carboxamide] | 1000 to 3000
< 1000 | O=C(N[C@H]1COc2ccc(C(F)(F)F)cc2C1)c1nc2n(c1-c1ccn[nH]1)CCCC2 [Example 19] | < 1000
< 1000 | O=C(N[C@H]1COc2ccc(COCC(F)(F)F)cc2C1)c1nc2n(c1-c1ccn[nH]1)CCCC2 [Example 20] | < 1000

Source: US12421225B2, “Heteroaromatic amide derivative and medicament containing the same” (KAKEN PHARMACEUTICAL CO., LTD., priority 2018, dated 2025)
